For 4 compounds, inhibition results are on record in patent US20130040814A1, “HERBICIDAL COMPOSITION” (ISHIHARA SANGYO KAISHA, LTD., priority 2010, published 2013).

Structures are written as SMILES. Where a name gives a salt, the structure may show the parent alone.

For assay [1], the system named is purple nutsedge. The assay is described as follows: Test Example 4: pot test, foliar application of flazasulfuron and dichlobenil wettable powder, visual growth inhibition. Format: in vivo. The settings on record: Cyperus. An excerpt:
(§1) Measured value of growth inhibition rate(%)(evaluated value by visual observation)=0(equivalent to non-treated area) to 100(complete kill)
(§2) That is, the measured value of growth inhibition rate (%) was rated to be 0% in a case where the level of the growth inhibition of weeds was the same in the non-treated area and to be 100% in a case where the growth was completed inhibited and the weeds were killed.
(§3) Upland field soil was put into a 1/1,000,000 ha pot, and tubers of purple nutsedge were planted. When purple nutsedge reached a 13 leaf stage, a predetermined amount of SHIBAGEN DF (tradename) and a predetermined amount of a wettable powder containing dichlobenil as an active ingredient (tradename: Kasoron wettable powder, manufactured by AGRO-KANESHO Co., Ltd.) were diluted with water (corresponding to 2,000 L/ha) containing 0.02 vol % of Kusa-rino (tradename) and applied by foliar application by means of a small sprayer.
On the 42nd day after application, the state of growth of purple nutsedge was visually observed, and in the same manner as in Test Example 1, the measured growth inhibition rate (%) and the calculated growth inhibition rate (%) obtained by the Colby's formula are shown in Table 4.

Assay [2] relates to purple nutsedge. The assay is described as follows: Test Example 3: pot test, foliar application of herbicidal composition, visual growth inhibition. The settings on record: Cyperus, read-out: Growth inhibition rate (%) of purple nutsedge, Measured value. Format: in vivo, Cyperus rofundus L.
Source text: as §1, §2
Upland field soil was put into a 1/1,000,000 ha pot, and tubers of purple nutsedge (Cyperus rofundus L) were planted. 54 days later, when purple nutsedge reached a height of 25 to 30 cm, a predetermined amount of a herbicidal composition was diluted with water (corresponding to 200 L/ha) containing 0.02 vol % of an agricultural adjuvant (tradename: Kusa-rino, manufactured by Nihon Nohyaku Co., Ltd.) and applied by foliar application by means of a small sprayer.
On the 42nd day after application, the state of growth of the plant was visually observed, and in the same manner as in Test Example 1, the measured growth inhibition rate (%) and the calculated growth inhibition rate (%) obtained by the Colby's formula are shown in Table 3.

Assay [3] relates to green kyllinga. The assay is described as follows: Test Example 6: pot test, sodium salt of trifloxysulfuron and chlorthiamid or dichlobenil, visual growth inhibition. Format: in vivo, Kyllinga brevifolia var. leiolepis. The settings on record: Cyperus brevifolius, 42nd day after application, height 10 cm, read-out: Growth inhibition rate (%) of green kyllinga, Measured value; for inhibition at 5000 g/ha: dose 5,000 g/ha.
Source text: as §1, §2, §3
Upland field soil was put into a 1/1,000,000 ha pot, rhizomes of green kyllinga (Kyllinga brevifolia var. leiolepis) were planted. When the height of green kyllinga reached 10 cm, a predetermined amount of Monument water dispersible granules (tradename) and a predetermined amount of chlorthiamid (reagent, manufactured by Wako Pure Chemical Industries, Ltd.) or Kasoron wet powder (tradename) were applied in the same manner as in Test Example 4.

The test system of assay [4] is purple nutsedge. The assay is described as follows: Test Example 1: pot test, foliar application of flazasulfuron and granule application of chlorthiamid, visual growth inhibition. Format: in vivo, Cyperus rofundus L. As to conditions: Cyperus, read-out: Growth inhibition rate (%) of purple nutsedge, Measured value.
Source text: When the herbicidal activity in a case where two active ingredients are combined, is larger than the simple sum (the expected activity) of the respective herbicidal activities of the two active ingredients, it is called a synergistic effect. The activity expected by the combination of two active ingredients can be calculated as follows (Colby S. R., “Weed”, vol. 15, p. 20-22, 1967).
(§4) Upland field soil was put into a 1/1,000,000 ha pot, and tubers of purple nutsedge (Cyperus rofundus L.) were planted. 33 days later, when purple nutsedge reached a 6 to 7 leaf stage, a predetermined amount of water dispersible granules containing flazasulfuron as an active ingredient (tradename: SHIBAGEN DF, manufactured by Ishihara Sangyo Kaisha, Ltd.) was diluted with water (corresponding to 200 L/ha) containing 0.02 vol % of an agricultural adjuvant (tradename: Kusa-rino, manufactured by Nihon Nohyaku Co., Ltd.) and applied by foliar application by means of a small sprayer, and a predetermined amount of granules containing chlorthiamid as an active ingredient (tradename: GF Ben-pole granules, manufactured by Suimitomo Chemical Garden Products Inc.) was applied by granule application.
as §1, §2

For assay [5], the system named is green kyllinga. The assay is described as follows: Test Example 2: pot test on green kyllinga, visual growth inhibition. Format: in vivo, Kyllinga brevifolia var. leiolepis. As to conditions: Cyperus brevifolius, read-out: Growth inhibition rate (%) of green kyllinga, Measured value. As to the method:
as §4, §1, §2
Upland field soil was put into a 1/1,000,000 ha pot, and rhizomes of green kyllinga (Kyllinga brevifolia var. leiolepis) were planted. 46 days later, when the height of green kyllinga reached 4 to 7 cm, a predetermined amount of SHIBAGEN DF, (tradename) and a predetermined amount of GF Ben-pole (tradename) were applied in the same manner as in Test Example 1.

The test system of assay [6] is green kyllinga. The assay is described as follows: Test Example 5: pot test, sodium salt of trifloxysulfuron and chlorthiamid, visual growth inhibition. Format: in vivo, Kyllinga brevifolia var. leiolepis. The settings on record: Cyperus brevifolius, 42nd day after application, height 6 to 8 cm, read-out: Growth inhibition rate (%) of green kyllinga, Measured value.
Source text: as §1, §2, §3
Upland field soil was put into a 1/1,000,000 ha pot, rhizomes of green kyllinga (Kyllinga brevifolia var. leiolepis) were planted.

The mark [7] stands for this setting: read-out: Growth inhibition rate (%) of purple nutsedge, Measured value.

Regarding `N#Cc1c(Cl)cccc1Cl` [Dichlobenil, 2,6-dichlorobenzonitrile], in the assay with purple nutsedge [1] (setting [7]), the inhibition (usually the drop in the measured response relative to a control, in per cent) at 500 g/ha was determined as 10% and the inhibition at 4000 g/ha stood at 33%. Also, in the assay with purple nutsedge [2], the inhibition at 500 g/ha was found to be 10%, the inhibition at 1000 g/ha worked out at 23%, the inhibition at 2000 g/ha is 10% and the inhibition at 4000 g/ha turned out to be 33%. Also, the inhibition at 5000 g/ha in the assay with green kyllinga [3] amounted to 58%.

On to `NC(=S)c1c(Cl)cccc1Cl` [Chlorthiamid, 2,6-dichlorothiobenzamide], for which, in the assay with purple nutsedge [4], the inhibition at 1000 g/ha was 35%, the inhibition at 2000 g/ha was 33%, the inhibition at 4000 g/ha came out at 50% and the inhibition at 6000 g/ha was found to be 69%. In the assay on green kyllinga [5], the inhibition at 1000 g/ha was determined as 20% and the inhibition at 5000 g/ha amounted to 65%. For the same compound, in the assay on purple nutsedge [2], the inhibition at 500 g/ha is 0%, the inhibition at 1000 g/ha worked out at 0%, the inhibition at 2000 g/ha was 18% and the inhibition at 4000 g/ha turned out to be 33%. Moreover, the inhibition at 5000 g/ha with green kyllinga [3] came out at 58%. For the same compound, the inhibition at 1000 g/ha in the assay on green kyllinga [6] (dose 1,000 g/ha) is 18%. Besides, the inhibition at 10000 g/ha in the assay with green kyllinga [6] (dose 10,000 g/ha) was 30%.

With `COc1cc(OC)nc(NC(=O)NS(=O)(=O)c2ncccc2OCC(F)(F)F)n1` [Sodium salt of trifloxysulfuron, 1-(4,6-dimethoxypyrimidin-2-yl)-3-[3-(2,2,2-trifluoroethoxy)-2-pyridylsulfonyl]urea], the inhibition at 45 g/ha in the assay with green kyllinga [3] (dose 45 g/ha) turned out to be 0%. Also, the inhibition at 10 g/ha in the assay with green kyllinga [6] (dose 10 g/ha) worked out at 0%. For the same compound, the inhibition at 200 g/ha with green kyllinga [6] (dose 200 g/ha) stood at 25%.

Turning to `COc1cc(OC)nc(NC(=O)NS(=O)(=O)c2ncccc2C(F)(F)F)n1` [Flazasulfuron, 1-(4,6-dimethoxypyrimidin-2-yl)-3-(3-trifluoromethyl-2-pyridylsulfonyl)urea], the inhibition at 25 g/ha in the assay on purple nutsedge [4] (dose 25 g/ha, 36th day after application, 6 to 7 leaf stage) worked out at 18%; in the assay with purple nutsedge [1] (dose 25 g/ha, 42nd day after application, 13 leaf stage, read-out: Growth inhibition rate (%) of Purple nutsedge, Measured value) it was 87%; with purple nutsedge [2] (dose 25 g/ha, 42nd day after application, height 25 to 30 cm), 87%. In addition, the inhibition at 50 g/ha in the assay with purple nutsedge [4] (dose 50 g/ha, 36th day after application, 6 to 7 leaf stage) was 73%; with green kyllinga [5] (dose 50 g/ha, 54th day after application, height 4 to 7 cm), 80%; with purple nutsedge [2] (dose 50 g/ha, 42nd day after application, height 25 to 30 cm) it was 98%.
